Where “and” joins values, the source holds several entries; their conditions need not be identical. Identical values can stand only once. Inconclusive results and toxic doses are left out. Square brackets hold non-standard residues; d marks the D form. Peptide text beside a SMILES is read from it. Hpg = N[CH](C(=O)O)c1ccc(O)cc1

For 20 compounds, T/C results are on record in PubChem BioAssay AID330 (DTP/NCI, 2004).

In this test the test system is P388 leukemia ip, CD2F1 mice, survival T/C. Put plainly: NCI In Vivo Anticancer Drug Screen. Data for tumor model P388 Leukemia (intraperitoneal) in CD2F1 (CDF1) mice. The conditions noted are these: endpoint: median survival time, higher = longer survival. Summed up: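 Mice carrying the transplanted tumor received test compound or vehicle. Survival was recorded in each group, and the value is the treated-group measurement divided by that of the vehicle-treated control group.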

The mark [1] stands for this setting: dose: 50.0 mg/kg/injection, schedule: Q01DX005 (ip), vehicle: saline with Tween-80.
[2] abbreviates: dose: 100.0 mg/kg/injection, schedule: Q01DX005 (ip), vehicle: saline with Tween-80.
The mark [3] stands for this setting: dose: 50.0 mg/kg/injection, schedule: Q01DX005 (ip), vehicle: Klucel (hydroxypropylcellulose) (HPC).
[4] abbreviates: dose: 200.0 mg/kg/injection, schedule: Q01DX005 (ip), vehicle: saline with Tween-80.
Setting [5] is: dose: 100.0 mg/kg/injection, schedule: Q01DX005 (ip), vehicle: Klucel (hydroxypropylcellulose) (HPC).
[6] abbreviates: dose: 200.0 mg/kg/injection, schedule: Q01DX005 (ip), vehicle: Klucel (hydroxypropylcellulose) (HPC).

With `CCOc1cc(/C=N\Nc2nnc(C)n2N)c(C)cc1N(CCCl)CCCl`, the T/C is 110 % of control (dose: 0.22 mg/kg/injection, schedule: Q01DX009 (ip), vehicle: saline with Tween-80); 105 % of control (dose: 0.33 mg/kg/injection, schedule: Q01DX009 (ip), vehicle: saline with Tween-80); 110 % of control (dose: 0.5 mg/kg/injection, schedule: Q01DX009 (ip), vehicle: saline with Tween-80); 120 % of control (dose: 0.75 mg/kg/injection, schedule: Q01DX009 (ip), vehicle: saline with Tween-80); 100 % of control (dose: 1.25 mg/kg/injection, schedule: Q04DX003 (ip), vehicle: saline); 160 % of control (dose: 2.0 mg/kg/injection, schedule: Q01DX009 (ip), vehicle: saline with Tween-80). Besides, the T/C reads like this: (dose: 2.5 mg/kg/injection, schedule: Q04DX003 (ip), vehicle: saline) 100 % of control; (dose: 4.0 mg/kg/injection, schedule: Q01DX009 (ip), vehicle: saline with Tween-80) 185 % of control; (dose: 5.0 mg/kg/injection, schedule: Q04DX003 (ip), vehicle: saline) 103 % of control.

Take `CC(C)(C(=O)O)C(Nc1ncnc2c1ncn2C1OC(CO)C(O)C1O)C(=O)O` (centres undefined): the T/C (dose: 100.0 mg/kg/injection, schedule: Q04DX003 (ip), vehicle: saline) is 100 % of control and the T/C (dose: 200.0 mg/kg/injection, schedule: Q04DX003 (ip), vehicle: saline) is 106 % of control.

Turning to `CCCCNC(=O)C1CC2c3cccc4c3c(cn4C)CC2N(C)C1` (centres undefined), the T/C runs as follows: (dose: 25.0 mg/kg/injection, schedule: Q01DX001 (ip), vehicle: saline) 102 % of control; (dose: 50.0 mg/kg/injection, schedule: Q01DX001 (ip), vehicle: saline) 105 % of control.

`NC(=O)c1cn[nH]c1N`: the T/C (dose: 25.0 mg/kg/injection, schedule: Q01DX009 (ip), vehicle: suspension in saline) was 118 % of control; the T/C (dose: 50.0 mg/kg/injection, schedule: Q01DX009 (ip), vehicle: saline) was 90 % of control; the T/C (dose: 50.0 mg/kg/injection, schedule: Q01DX009 (ip), vehicle: suspension in saline) is 97 % of control; the T/C (dose: 100.0 mg/kg/injection, schedule: Q01DX009 (ip), vehicle: saline) is 90 % of control; the T/C (dose: 100.0 mg/kg/injection, schedule: Q01DX009 (ip), vehicle: suspension in saline) is 104 % of control; the T/C (dose: 200.0 mg/kg/injection, schedule: Q01DX009 (ip), vehicle: saline) is 87 % of control. The T/C (dose: 200.0 mg/kg/injection, schedule: Q01DX009 (ip), vehicle: suspension in saline) was 94 % of control.

With `N#CC(N)C(F)c1ccccc1` (centres undefined), the T/C was 100 % of control (dose: 100.0 mg/kg/injection, schedule: Q01DX001 (ip), vehicle: Klucel (hydroxypropylcellulose) (HPC)); 101 % of control (dose: 200.0 mg/kg/injection, schedule: Q01DX001 (ip), vehicle: Klucel (hydroxypropylcellulose) (HPC)); 101 % of control (dose: 400.0 mg/kg/injection, schedule: Q01DX001 (ip), vehicle: Klucel (hydroxypropylcellulose) (HPC)).

On to `Cc1noc(NS(=O)(=O)c2ccc(N=c3c4ccccc4n(-c4ccccc4)c4ccccc34)cc2)c1C`, for which the T/C runs as follows: under setting [1], 97 % of control; under setting [2], 100 % of control.

Turning to `Brc1ccc2c3c(ccc2c1)OCCOCCOCCOCCOCCOc1ccc2cc(Br)ccc2c1-3`, the T/C is, setting by setting: (dose: 100.0 mg/kg/injection, schedule: Q01DX001 (ip), vehicle: saline with Tween-80) 104 % of control; (dose: 200.0 mg/kg/injection, schedule: Q01DX001 (ip), vehicle: saline with Tween-80) 107 % of control; (dose: 400.0 mg/kg/injection, schedule: Q01DX001 (ip), vehicle: saline with Tween-80) 104 % of control.

Turning to `NCCSSc1ccccc1[N+](=O)[O-]`, the T/C (dose: 12.5 mg/kg/injection, schedule: Q01DX005 (ip), vehicle: Klucel (hydroxypropylcellulose) (HPC)) was 98 % of control; the T/C (dose: 25.0 mg/kg/injection, schedule: Q01DX005 (ip), vehicle: Klucel (hydroxypropylcellulose) (HPC)) was 94 % of control; the T/C under setting [3] was 98 % of control and 90 % of control.

For the compound `NC1=C(O)C(=O)C(c2ccccc2O)O1` (centres undefined), the T/C by setting is: (dose: 30.0 mg/kg/injection, schedule: Q01DX005 (ip), vehicle: suspension in saline) 104 % of control; (dose: 60.0 mg/kg/injection, schedule: Q01DX005 (ip), vehicle: suspension in saline) 103 % of control; (dose: 120.0 mg/kg/injection, schedule: Q01DX005 (ip), vehicle: suspension in saline) 89 % of control and 97 % of control; (dose: 240.0 mg/kg/injection, schedule: Q01DX005 (ip), vehicle: suspension in saline) 88 % of control.

Take `CC(=O)OC1CCC2CC3(CCC1(C)C2=O)OCCO3` (centres undefined): the T/C is, setting by setting: (dose: 100.0 mg/kg/injection, schedule: Q04DX003 (ip), vehicle: saline + Tween-80 + alcohol) 100 % of control; (dose: 200.0 mg/kg/injection, schedule: Q04DX003 (ip), vehicle: saline + Tween-80 + alcohol) 99 % of control; (dose: 400.0 mg/kg/injection, schedule: Q04DX003 (ip), vehicle: saline + Tween-80 + alcohol) 103 % of control.

Consider `c1ccc2nc(-c3cnc4ccccc4n3)cnc2c1`, for which the T/C is, setting by setting: (dose: 100.0 mg/kg/injection, schedule: Q04DX002 (ip), vehicle: saline with Tween-80) 95 % of control; (dose: 200.0 mg/kg/injection, schedule: Q04DX002 (ip), vehicle: saline with Tween-80) 90 % of control.

Take `CC1(C)c2ccccc2C(=O)c2ccccc21`: the T/C is, setting by setting: under setting [1], 103 % of control; under setting [2], 100 % of control; under setting [4], 103 % of control.

In the case of `CCCCOC(=O)/C=C/C(=O)N1CCN(C(=O)/C=C/C(=O)OCCCC)C(C)C1` (centres undefined), the T/C is, setting by setting: under setting [3], 100 % of control; under setting [5], 94 % of control; under setting [6], 96 % of control.

In the case of `C=Cc1c(C)c2[nH]c1=CC1=NC(=CC3=NC(=CC4=C(C)/C(=C\NO)C(=N4)C=2)C(C)=C3CCC(=O)OC)C(CCC(=O)OC)=C1C`, the T/C is, setting by setting: under setting [3], 95 % of control; under setting [5], 99 % of control; under setting [6], 99 % of control.

Consider `CC1=C2C3OC(=O)C(C)C3CCC2(C)C=C(Cl)C1=O` (centres undefined), for which the T/C by setting is: (dose: 60.0 mg/kg/injection, schedule: Q01DX005 (ip), vehicle: Klucel (hydroxypropylcellulose) (HPC)) 111 % of control; (dose: 120.0 mg/kg/injection, schedule: Q01DX005 (ip), vehicle: Klucel (hydroxypropylcellulose) (HPC)) 98 % of control; (dose: 240.0 mg/kg/injection, schedule: Q01DX005 (ip), vehicle: Klucel (hydroxypropylcellulose) (HPC)) 101 % of control.

`N#CN=C1N=S(=O)(c2ccccc2)c2ccccc21` (centres undefined): the T/C (dose: 50.0 mg/kg/injection, schedule: Q01DX009 (ip), vehicle: Klucel (hydroxypropylcellulose) (HPC)) was 103 % of control; the T/C (dose: 100.0 mg/kg/injection, schedule: Q01DX009 (ip), vehicle: Klucel (hydroxypropylcellulose) (HPC)) was 100 % of control; the T/C (dose: 200.0 mg/kg/injection, schedule: Q01DX009 (ip), vehicle: Klucel (hydroxypropylcellulose) (HPC)) is 101 % of control.

In the case of `O=C(Nc1cccc([N+](=O)[O-])c1)C1C(=O)N(c2cccc([N+](=O)[O-])c2)C(=O)/C1=N/O` (centres undefined), the T/C reads like this: under setting [1], 99 % of control; under setting [2], 95 % of control; under setting [4], 100 % of control.

Consider `CC(C)CC(N)C(=O)NC(C(=O)O)c1ccc(O)cc1` (centres undefined) (H-Leu-[Hpg]-OH; configuration not given here), for which the T/C reads like this: (dose: 50.0 mg/kg/injection, schedule: Q01DX009 (ip), vehicle: saline with Tween-80) 103 % of control; (dose: 100.0 mg/kg/injection, schedule: Q01DX009 (ip), vehicle: saline with Tween-80) 101 % of control; (dose: 200.0 mg/kg/injection, schedule: Q01DX009 (ip), vehicle: saline with Tween-80) 102 % of control.

For `C=C1C(=O)OC2C1CCC(C)=C1CCC(C)(O)C12` (centres undefined), the T/C is 97 % of control (dose: 5.0 mg/kg/injection, schedule: Q01DX009 (ip), vehicle: saline with Tween-80); 105 % of control (dose: 10.0 mg/kg/injection, schedule: Q01DX009 (ip), vehicle: saline with Tween-80); 107 % of control (dose: 20.0 mg/kg/injection, schedule: Q01DX009 (ip), vehicle: saline with Tween-80); 107 % of control (dose: 40.0 mg/kg/injection, schedule: Q01DX009 (ip), vehicle: saline with Tween-80).

`CC(/C=C1\C(=O)N(C)C(CC(C)C(Cl)(Cl)Cl)C(=O)N1C)C(Cl)(Cl)Cl` (centres undefined): the T/C is 101 % of control (dose: 4.75 mg/kg/injection, schedule: Q01DX005 (ip), vehicle: saline with Tween-80); 100 % of control (dose: 9.5 mg/kg/injection, schedule: Q01DX005 (ip), vehicle: saline with Tween-80); 95 % of control (dose: 19.0 mg/kg/injection, schedule: Q01DX005 (ip), vehicle: saline with Tween-80); 101 % of control (dose: 38.0 mg/kg/injection, schedule: Q01DX005 (ip), vehicle: saline with Tween-80).
